From patent publication US20160040126A1, “REGULATION OF DIFFERENTIATION INTO DOPAMINERGIC NEURONS BY METALLOPROTEASE” (Korea University Research and Business Foundation, priority 2012, published 2016)

Columns and labels:
[1] = test system: midbrain neurons derived from normal mice and D2R−/− mice; assay: Differentiation of midbrain neurons into dopaminergic neural cells (TH immunostaining: number of TH-positive cells, neurite length, neurite number); assay type: cell-based; conditions: for effect of the agent on the development of dopaminergic neural cells by EGF+quinpirole: co-treatment with EGF+quinpirole, normal mice and D2R−/− mice; for effect of the agent on the differentiation/development of dopaminergic neural cells by EGF: co-treatment with EGF, or siRNA knockdown before EGF
Procedure: Midbrain neurons derived from normal mice and D2R−/− mice were treated with each of EGF, EGF+haloperidol, EGF+AG1478 and EGF+PD98059, and then stained with TH by an immunostaining technique. Then, the number of TH-positive cells, the length of neurites and the number of neurites in the midbrain neurons were compared between EGF, EGF+haloperidol, EGF+AG1478 and EGF+PD98059 to determine the abilities to induce differentiation into dopaminergic neural cells.
Then, the number of TH-positive cells, the length of neurites and the number of neurites in the midbrain neurons were compared to determine the abilities to induce differentiation into dopaminergic neural cells.

ERK = assay: Phosphorylation of ERK in midbrain neurons; assay type: cell-based, mice; conditions: for effect of the agent on the phosphorylation of ERK by quinpirole: co-treatment with quinpirole, or siRNA knockdown before quinpirole; for effect of the agent on the phosphorylation of ERK by EGF: co-treatment with EGF

Compound	effect of the agent on the development of dopaminergic neural cells by EGF+quinpirole [1]	effect of the agent on the differentiation/development of dopaminergic neural cells by EGF ([1]; midbrain neurons)	effect of the agent on the phosphorylation of ERK by quinpirole (ERK)	effect of the agent on the phosphorylation of ERK by EGF (ERK)	differentiation of dopaminergic neural cells from midbrain neurons ([1]; treated with the agent alone, normal mouse and D2R−/− mouse midbrain neurons, TH immunostaining)	phosphorylation of ERK by the agent (ERK; compared to that in the control) [%]	effect of the agent on the development of dopaminergic neural cells by quinpirole ([1]; co-treatment with quinpirole, or siRNA knockdown before quinpirole, midbrain neurons)
COc1cc2ncnc(Nc3cccc(Cl)c3)c2cc1OC [AG1478]	inhibited to the basal level	completely blocked	inhibited				
O=C(CCCN1CCC(O)(c2ccc(Cl)cc2)CC1)c1ccc(F)cc1 [haloperidol]	not inhibited	not blocked		not inhibited			
COc1cccc(-c2cc(=O)c3ccccc3o2)c1N [PD98059]		completely blocked					
EGF: epidermal growth factor (NSDSECPLSHDGYCLHDGVCMYIEALDKYACNCVVGYIGERCQYRDLKWWELR; Epidermal growth factor; UniProt P01133 971-1023, looked up)					promoted	417	
CNC(=O)[C@H](Cc1c[nH]c2ccccc12)NC(=O)[C@H](CC(=O)NO)CC(C)C [GM6001, (2S)—N4-hydroxy-N1-[(1S)-1-(1H-indol-3-ylmethyl)-2-(methylamino)-2-oxoethyl]-2-isobutylsuccinamide]		not inhibited	inhibited to the basal level	not influenced			inhibited
